Like-named read-outs stand apart in the source and are kept apart here.
Legend:
[1] = test system: rats; assay: 18-hour spontaneous activity monitoring; assay type: in vivo, male Wistar rats; details: rat, 1 mg/kg/day i.p.
Procedure: Spontaneous activity was measured on the 20th day of the treatment with a special, innovative, radio-frequency identification system (RFID-system), TraffiCage (TSE-Systems, Bad Homburg, Germany). The test was conducted according to the method described previously. The animals had RFID transmitters implanted subcutaneously, which tracked the time they spent in different areas of the cage.

[2] = Pharmacokinetics and brain uptake after i.v. and i.g. administration; assay type: in vivo, male Wistar rats; details: rat; for half-life / Cmax / MRT / AUC(0-t) / C0 / clearance / bioavailability / Tmax / Kp / Vd: male, Wistar; for half-life: in vivo, elimination from body, route not stated; for bioavailability: i.g. 2 mg/kg vs i.v. 0.5 mg/kg, read-out: F (absolute bioavailability); for Kp: brain/plasma, read-out: Brain/Plasma ratio; for Vd: read-out: Vss
Text: The compounds investigated, namely, PQA-AZ4 and PQA-AZ6 (UPLC/MS purity > 95%), were synthesized at the Department of Medicinal Chemistry, Jagiellonian University Medical College (synthesis described in [10]); PQ-10, (6,7-dimethoxy-4-[(3R)-3-(2-quinoxalinyloxy)-1-pyrrolidinyl]-quinazoline, was obtained from Sigma-Aldrich (St. Louis, MO, USA). For the studies, the compounds were suspended in 1% aqueous solution of Tween 80, while (+)-MK-801 (hydrogen maleate, Sigma-Aldrich, St. Louis, MO, USA) was dissolved in distilled water. In the behavioral studies, PQA-AZ4, PQA-AZ6, and PQ-10 were injected intraperitoneally (i.p.) once a day (between 9:00 AM and 10:00 AM) for 21 consecutive days at the minimum active doses selected previously, based on acute treatment and assessment in behavioral tests at a volume of 2 mL/kg body weight. The control groups received 1% aqueous solution of Tween 80 (Sigma-Aldrich, St. Louis, MO, USA) in the same schedule. For the pharmacokinetic study, PQA-AZ4 and PQA-AZ6 dissolved in 20% captizol (Ligand, San Diego, CA, USA) were administered intravenously (i.v.) and intragastrically (i.g.) at a dose of 0.5 and 2 mg/kg, respectively, while ketamine (50 mg/kg, (hydrochloride, Biowet Puławy, Puławy, Poland)) and xylazine (8 mg/kg, hydrochloride, Biowet Puławy, Poland)) were injected i.p.
HPLC grade methanol, acetonitrile and reagent grade formic acid, hydrochloric acid, potassium dihydrogen phosphate, orthophosphoric acid, and sodium chloride were purchased from Merck (Darmstadt, Germany). Tissues (control blood and brain) were obtained from adult male Wistar rats anesthetized by i.p. injection of 50 mg/kg ketamine plus 8 mg/kg xylazine, and blood samples were collected in heparinized tubes from the heart. Blood samples were collected at 0 (predose), 15, 60, 240, and 1440 min after compound administration. The plasma was separated by centrifugation (1000× g, 10 min). Plasma and brain were stored at −80 °C pending analysis. The LC/ESI-MS/MS experiments were performed on a UPLC ACQUITY H-Class PLUS/Xevo TQD (Waters Corporation, Milford, MA, USA) triple-quadrupole mass spectrometer equipped with an electrospray (ESI) ionization interface. Data acquisition and processing were accomplished using MassLynx data collection and integration software. For the chromatographic and mass spectrometric conditions, and sample pretreatment, please see the Supplementary Materials.
Pharmacokinetic parameters were calculated by a noncompartmental approach from the average concentration values, using Phoenix WinNonlin software (Certara, Princeton, NJ 08540 USA). The first-order elimination rate constant (λz) was calculated by linear regression of log concentration versus time. The area under the mean plasma and brain concentration versus time curve (AUC0→t) was calculated from zero to the last concentration point using the linear trapezoidal rule:(1) AUC0→t=∑i=1nCi+Ci+1/2·(ti+1−ti) where Ci is the concentration of the compound.
The area under the first-moment curve (AUMC0→t) was estimated by calculation of the total area under the first-moment curve:(2) AUMC0→t=∑i=1n((ti·Ci+ti+1·Ci+1)/2)·(ti+1−ti) where ti is the […].
Mean residence time (MRT) was calculated as:(3) MRT=AUMC0→t/AUC0→t
Systemic clearance (Cl) was calculated as:(4) Cl=Div/AUC0→t
The volume of distribution at steady state (Vss) was calculated as:(5) Vss=Div⋅AUMC0→t/(AUC0→t )^2
The absolute bioavailability (F) of PQA-AZ4 and PQA-AZ6 after i.g. administration was calculated as:(6) F(%)=AUCi.g./AUCi.v.⋅Di.v./Di.g.⋅100 where Di.v. and Di.g. are i.v. and i.g. doses of the studied molecules, respectively.
1. Methods in pharmacokinetic studies
Instrumentation and operating conditions
The LC/ESI-MS/MS experiments were performed on a UPLC ACQUITY H-Class PLUS/Xevo
TQD (Waters Corporation, USA) triple-quadrupole mass spectrometer equipped with an electrospray
(ESI) ionization interface. Data acquisition and processing were accomplished using MassLynx data […]

[3] = target: 5-HT1AR; set-up: method as in PMID 35248836; details: read-out: Affinity 5-HT1AR Ki; cited from earlier work
[4] = test system: (+)-MK-801-induced memory deficits; assay: Novel object recognition (NOR) test in (+)-MK-801 treated rats; assay type: in vivo, male Wistar rats; details: rat; for Total Exploratory Time in T2 Session: vehicle 49.67 ± 4.63; for effect on (+)-MK-801-induced recognition memory deficits (discrimination index): 21 days, (+)-MK-801 0.1 mg/kg i.p.
Procedure: The rats were injected with the respective compounds for 21 consecutive days at the minimum active doses selected previously, based on acute treatment and assessment in the NOR test. The protocol for the NOR test was adapted from the original work and the test was performed according to the previously described protocol, 24 h after the last injection of the investigated compound. The discrimination index (DI) was calculated according to the formula:(7) DI=(EB−EA)/(EA+EB) where EB is the exploration time of novel object during the T2 session and EA is the exploration time of […].
PQA-AZ4 and PQA-AZ-6 were administered for 60 and 30 min, respectively, before the T1 phase (the familiarization phase). MK-801 was used to attenuate learning and was administered at a dose of 0.1 mg/kg (i.p.) 30 min before the familiarization phase (T1). The total exploration time in T2 was used to determine the influence of the treatment on the exploratory activity of the animals.

[5] = brain, iv, 0.5 mg/kg, i.v. 0.5 mg/kg
[6] = brain, po, 2 mg/kg, i.g. 2 mg/kg
[7] = plasma, iv, 0.5 mg/kg, i.v. 0.5 mg/kg, plasma
[8] = plasma, po, 2 mg/kg, i.g. 2 mg/kg

SMILES	half-life [2]	Cmax ([2]; iv, i.v. 0.5 mg/kg, brain)	MRT ([2]; iv, i.v. 0.5 mg/kg, brain)	AUC(0-t) ([2]; iv, i.v. 0.5 mg/kg, plasma)	C0 ([2]; iv, i.v. 0.5 mg/kg, plasma)	MRT ([2]; iv, i.v. 0.5 mg/kg, plasma)	clearance ([2]; iv, i.v. 0.5 mg/kg, plasma)	bioavailability ([2]; plasma, oral)	Cmax ([2]; po, i.g. 2 mg/kg, brain)	MRT ([2]; po, i.g. 2 mg/kg, brain)	AUC(0-t) ([2]; po, i.g. 2 mg/kg, plasma)	Cmax ([2]; po, i.g. 2 mg/kg, plasma)	MRT ([2]; po, i.g. 2 mg/kg, plasma)	Tmax [2, 5]	Tmax [2, 6]	Kp ([2]; iv, 0.5 mg/kg, i.v. 0.5 mg/kg)	Kp ([2]; po, 2 mg/kg, i.g. 2 mg/kg)	Vd [2, 7]	Tmax [2, 8]	Brain/Plasma ratio ([2]; i.g. 2 mg/kg)	further results
COc1cccc(N2CCN(CC3CCN(c4ncnc5cc(OC)c(OC)cc45)C3)CC2)c1 (stereo not shown) [PQA-AZ4, 6,7-Dimethoxy-4-(3-((4-(3-methoxyphenyl)piperazin-1-yl)methyl)pyrrolidin-1-yl)quinazoline]	~1 h	149 ng/g	3.1 h	714 ng·h/mL	431 ng/mL	0.958 h	10.8 mL/min/kg	8.29%	71.4 ng/g	3.58 h	118 ng·h/mL	46.7 ng/mL	1.38 h	0.25 h	1 h	0.9	5.7	0.8 L/kg	≤ 1 h	5.68	spontaneous activity vs vehicle ([1]; five and six hours after 20-day administration): increased; bioavailability ([2]; plasma, po): 8.3%; AUC0→t ([2]; i.g. 2 mg/kg, brain): 40,314 ng·min/g; t0.5 ([2]; i.g. 2 mg/kg, brain): 214 min; t0.5 ([2]; i.g. 2 mg/kg, plasma): 92 min; AUC0→t ([2]; i.v. 0.5 mg/kg, brain): 40,806 ng·min/g; t0.5 ([2]; i.v. 0.5 mg/kg, brain): 220 min; t0.5 ([2]; i.v. 0.5 mg/kg, plasma): 67.3 min; Ki [3]: 18 nM; Total Exploratory Time in T2 Session ([4]; 1 mg/kg/day i.p. 21 days + (+)-MK-801 0.1 mg/kg): 28.83 ± 2.50 p < 0.01 vs. veh; p < 0.05 vs. (+)-MK-801 F(2,16) = 7.3773; p < 0.01; effect on (+)-MK-801-induced recognition memory deficits (discrimination index) ([4]; 1 mg/kg/day i.p.): restored recognition memory deficits
COc1cc2ncnc(N3CCC(CN4CCN(c5ccc(Cl)cc5)CC4)C3)c2cc1OC (stereo not shown) [PQA-AZ6, 4-(3-((4-(4-Chlorophenyl)piperazin-1-yl)methyl)pyrrolidin-1-yl)-6,7-dimethoxyquinazoline]	~1 h	113 ng/g	7.4 h	93.6 ng·h/mL	102 ng/mL	0.742 h	85.2 mL/min/kg	38.4%	342 ng/g	12 h	144 ng·h/mL	99.5 ng/mL	1.11 h	0.25 h	0.25 h	8.6	5.3	~4.7 L/kg	0.25 h	5.29	spontaneous activity vs vehicle ([1]; eighteen hours after 20-day administration): decreased; AUC0→t ([2]; i.g. 2 mg/kg, brain): 45,623 ng·min/g; t0.5 ([2]; i.g. 2 mg/kg, brain): 1928 min; t0.5 ([2]; i.g. 2 mg/kg, plasma): 216.8 min; AUC0→t ([2]; i.v. 0.5 mg/kg, brain): 48,321 ng·min/g; t0.5 ([2]; i.v. 0.5 mg/kg, brain): 597 min; t0.5 ([2]; i.v. 0.5 mg/kg, plasma): 54.2 min; Ki [3]: 346 nM; Total Exploratory Time in T2 Session ([4]; 3 mg/kg/day i.p. 21 days + (+)-MK-801 0.1 mg/kg): 39.57 ± 4.39 F(2,17) = 1.3060; NS s; effect on (+)-MK-801-induced recognition memory deficits (discrimination index) ([4]; 3 mg/kg/day i.p.): restored recognition memory deficits

Source: article PMC9569954, “The Antidepressant-like Activity, Effects on Recognition Memory Deficits, Bioavailability, and Safety after Chronic Administration of New Dual-Acting Small Compounds Targeting Neuropsychiatric Symptoms in Dementia” (International Journal of Molecular Sciences, 2022)
